Experimental data published in patent publication US20170215470A1, “USE OF A COMPOSITION CONTAINING A LONG-CHAIN POLYOL AS A BASE FOR E-LIQUIDS” (LABORATOIRES CERES, priority 2014, published 2017).
Where two headings read alike, the source gives them in different places.

Assay: Thermal stability by thermogravimetric (TGA) and thermal differential analysis (TDA)
Format: physicochemical
Method: The thermogravimetric analysis is a method of thermal analysis in which the changes of the physical and chemical properties of the materials are measured as a function of the temperature. The TGA can supply information about the physical phenomena such as the vaporization or the combustion. Also, it is possible to obtain information about the chemical phenomena such as the dehydration or the decomposition. In the thermal differential analysis (TDA) the study material and an inert reference undergo identical thermic cycles. During the analysis the temperature difference between the sample and the reference is recorded. These temperature differences followed as a function of the rime relative to the inert reference inform us about the thermal phenomena undergone by the sample, whether exothermic or endothermic. […] The endothermic character is associated with a change of state of the compound (ex. vaporization) whereas the exothermic character is induced by reactions of decomposition or by intra- and intermolecular chemical reactions. The thermogravimetric analyzer […] of TA INSTRUMENT was used to conjointly determine the vaporization temperatures of the products, the enthalpy values and the rate of products not vaporized at 350° C. The analysis conditions are as follows: test size: 50 mg open crucible under flow of air: 100 ml/min rate of heating: 10° C./min temperature range: 25 to 350° C. (temperature conditions representative of a normal use as well as of misuse of an electronic cigarette). The apparatus is cleaned between each analysis by being heated to 600° C. under a flow of air in order to eliminate any trace of non-vaporized residue deposited on the crucible, the balance arms or the kiln walls.

Structure (SMILES) | TDA vaporization temperature (° C.) (1) (endothermic peak, 50 mg, air 100 ml/min, 10° C./min, 25 to 350° C.) | TDA transformation temperature (° C.) (2) (exothermic peak (reaction and/or decomposition), 50 mg, air 100 ml/min, 10° C./min) | TDA vaporization temperature (° C.) (1) | TGA non-evaporated residue at 250° C. (%)
CC(O)CCO (stereo not shown) [1,3-butane diol] | 171 °C | without any thermal decomposition |  | 
CN1CCCC1c1cccnc1 (stereo not shown) [Nicotine] |  |  | 190 °C | 1.08%
